Earlier results on one compound are cited in patent US4803080A (BYK Gulden Lomberg Chemische Fabrik, priority 1984, dated 1989).

On to `Cn1c(=O)c2[nH]cnc2n(C)c1=O` [Theophylline, 1,3-dimethylxanthine], for which, under “Nolte and Neumann”, the “Serum theophylline levels regarded as toxic range” value is “more than 20 μg/ml”. Besides, for the setting “in vivo”, the “Absorption from the gastrointestinal tract during the night” value was “slowed down during the night” and the “Therapeutic range, plasma levels” value is 8-20 mg/1.
